According to patent US20240390464A1, “Treatment of Adults With Overweight or Obesity With or Without Weight-Related Comorbidities” (Carmot Therapeutics Inc., priority 2023, published 2024):
“Also recorded” adds a separate entry of the source. Marks after values point to notes of the source that are not given here. Numbered stars: 1 amine (or outer) side, 2 acyl side, 3 side chain; on linkers, the order of the positions; unused ones are H or OH. Square brackets hold non-standard residues; d marks the D form. Side chains are listed from the residue outwards. Peptide text beside a SMILES is read from it. * marks the point of attachment. Isobutyryl(2-(3-CN-5-F-Ph)) = CC(C)(C(=O)*)c1cc(F)cc(C#N)c1; C20 diacid = O=C(O)CCCCCCCCCCCCCCCCCCC(=O)*; γGlu = O=C(O)[C@H](CCC(=O)[*:2])N[*:1]; AEEA = NCCOCCOCC(=O)O; Aib = CC(C)(N)C(=O)O; βAla = NCCC(=O)O

Test: Phase 1 MAD Cohorts 6-8: safety and tolerability (TEAEs)
Assay type: in vivo, human
From the text: The primary objective of this study is to determine the safety and tolerability of CT-388 in otherwise healthy overweight and obese adult participants when administered once weekly over 4 consecutive weeks with titrated dosing.
Safety and tolerability will be assessed by monitoring adverse events (AE) including local injection-site reactions, measuring vital signs and ECGs, and performing clinical laboratory blood and urine analyses.
• Cohort 6: One weekly dose titrated across 4 consecutive weeks with CT-388 doses of . . . • 5.0 mg at Day 1 • 5.0 mg at Day 8 • 5.0 mg at Day 15 • 7.5 mg at Day 22 • . . . or matched placebo administered subcutaneously in the abdomen • Cohort 7: One weekly dose titrated across 4 consecutive weeks with CT-388 doses of . . . • 5.0 mg at Day 1 • 5.0 mg at Day 8 • 8.0 mg at Day 15 • 12.0 mg at Day 22 • . . . or matched placebo administered subcutaneously in the abdomen • Cohort 8: One weekly dose titrated across 4 consecutive weeks with CT-388 doses of . . . • 5.0 mg at Day 1 • 8.0 mg at Day 8 • 12.0 mg at Day 15 • 12.0 mg at Day 22 • . . . or matched placebo administered subcutaneously in the abdomen (the third dose in Cohort 8 can be lowered to 8.0 mg based on tolerability data from Cohort 7) • Cohort 9: One weekly dose titrated across 4 consecutive weeks with CT-388 doses of . . . • 8.0 mg at Day 1 • 8.0 mg at Day 8 • 12.0 mg at Day 15 • 16.0 mg at Day 22 • . . . or matched placebo administered subcutaneously in the abdomen • Cohort 10: the following two dosing options are proposed in Table 3 below:
A Phase 1, randomized, placebo-controlled, double-blind study was conducted where single ascending doses (SAD; n=40; 0.5-7.5 mg) and multiple ascending doses (MAD; n=24; 5-12 mg via titration in 3 cohorts) were administered as described in Example 1 to overweight/obese adults.
The 24 patients in the MAD arm were divided into three cohorts (Cohorts 6, 7, and 8) as shown in Table 5 below (EOT: end of treatment).
Briefly, participants were randomized 3:1 (6 to CT-388, 2 to placebo, n=8 per cohort). CT-388 was administered once weekly at a dose of 5 mg at baseline in all cohorts and up-titrated up to 12 mg in Cohorts 7 & 8. Oral Glucose Tolerance Test (OGTT) with 75 g glucose solution was performed at baseline (Day −1) and on Day 23. Blood was collected at 15 min prior to OGTT, at OGTT start, and in 30-minute intervals until 120 minutes. Fasting glucose, insulin, C-peptide, and HOMA-IR were measured/calculated at baseline and on Day 23.

[1] = Cohort 7, 5/5/8/12 mg SC QW, N = 6
[2] = Cohort 8, 5/8/12/12 mg SC QW, N = 6

For `CC[C@H](C)[C@H](NC(=O)[C@H](CC(C)C)NC(=O)[C@H](Cc1c[nH]c2ccccc12)NC(=O)[C@H](CCC(N)=O)NC(=O)[C@@H](NC(=O)[C@H](Cc1ccccc1)NC(=O)[C@H](C)NC(=O)[C@H](CCCCNC(=O)COCCOCCNC(=O)COCCOCCNC(=O)CC[C@H](NC(=O)CCCCCCCCCCCCCCCCCCC(=O)O)C(=O)O)NC(=O)[C@H](CCC(N)=O)NC(=O)[C@H](C)NC(=O)[C@@H](NC(=O)[C@H](CCCCN)NC(=O)[C@H](CC(=O)O)NC(=O)[C@H](CC(C)C)NC(=O)C(C)(C)NC(=O)[C@@H](NC(=O)[C@H](CO)NC(=O)[C@H](Cc1ccc(O)cc1)NC(=O)[C@H](CC(=O)O)NC(=O)[C@H](CO)NC(=O)[C@@H](NC(=O)[C@H](Cc1ccccc1)NC(=O)[C@@H](NC(=O)CNC(=O)[C@H](CCC(=O)O)NC(=O)CCNC(=O)C(C)(C)c1cc(F)cc(C#N)c1)[C@@H](C)O)[C@@H](C)O)[C@@H](C)CC)[C@@H](C)CC)C(C)C)C(=O)N[C@@H](C)C(=O)NCC(=O)NCC(=O)N1CCC[C@H]1C(=O)N[C@@H](CO)C(=O)N[C@@H](CO)C(=O)NCC(=O)N[C@@H](C)C(=O)N1CCC[C@H]1C(=O)N1CCC[C@H]1C(=O)N1CCC[C@H]1C(=O)N[C@@H](CO)C(N)=O` [CT-388] ({Isobutyryl(2-(3-CN-5-F-Ph))-βAla}-EGTFTSDYSI[Aib]LDKIAQK([AEEA-AEEA-γGlu-C20 diacid])AFVQWLIAGGPSSGAPPPS-NH2), the “Gastroesophageal Reflux Disease” value [1] was 0 n (%), the Nausea [1] was 1 (16.7) n (%) and the “Nausea Grade 1” value [1] was 1 (16.7) n (%). The “Nausea Grade 2” value [1] was 0 n (%), the “Nausea Grade 3” value [1] was 0 n (%) and the “Serious TEAEs” value [1] was 0 # Events. For the same molecule, the “Subjects discontinued due to TEAE” value [1] was 0 n (%), the “Subjects with at least 1 TEAE” value [1] was 6 n (%) and the “TEAE Severity: Grade 1” value [1] was 6 n (%). For the same molecule, the “TEAE Severity: Grade 2” value [1] was 1 n (%), the “TEAE Severity: Grade 3” value [1] was 0 n (%) and the Vomiting [1] was 2 (33.3) n (%). For the same molecule, the “Vomiting Grade 1” value [1] was 2 (33.3) n (%), the “Vomiting Grade 2” value [1] was 0 n (%) and the “Vomiting Grade 3” value [1] was 0 n (%). For the same molecule, the “Abdominal Distention” value [2] was 0 n (%), the Constipation [2] was 1 (16.7) n (%) and the “Constipation Grade 1” value [2] was 1 (16.7) n (%). For the same molecule, the “Constipation Grade 2” value [2] was 0 n (%), the “Constipation Grade 3” value [2] was 0 n (%) and the Diarrhea [2] was 3 (50.0) n (%). For the same molecule, the “Diarrhea Grade 1” value [2] was 3 (50.0) n (%), the “Diarrhea Grade 2” value [2] was 0 n (%) and the “Diarrhea Grade 3” value [2] was 0 n (%). For the same molecule, the “Drug-related TEAEs” value [2] was 25 # Events, the Dyspepsia [2] was 0 n (%) and the Eructation [2] was 1 (16.7) n (%). For the same molecule, the “Fatal TEAEs” value [2] was 0 # Events, the “GI TEAEs (Total)” value [2] was 5 (83.3) n (%) and the “Gastroesophageal Reflux Disease” value [2] was 2 (33.3) n (%). For the same molecule, the Nausea [2] was 3 (50.0) n (%), the “Nausea Grade 1” value [2] was 2 (33.3) n (%) and the “Nausea Grade 2” value [2] was 1 (16.7) n (%). The “Nausea Grade 3” value [2] was 0 n (%), the “Serious TEAEs” value [2] was 0 # Events and the “Subjects discontinued due to TEAE” value [2] was 0 n (%). For the same molecule, the “Subjects with at least 1 TEAE” value [2] was 6 n (%), the “TEAE Severity: Grade 1” value [2] was 6 n (%) and the “TEAE Severity: Grade 2” value [2] was 3 n (%). The “TEAE Severity: Grade 3” value [2] was 0 n (%), the Vomiting [2] was 2 (33.3) n (%) and the “Vomiting Grade 1” value [2] was 2 (33.3) n (%). The “Vomiting Grade 2” value [2] was 1 (16.7) n (%), the “Vomiting Grade 3” value [2] was 0 n (%) and the tolerability (MAD cohorts, 5 mg up-titrated to 12 mg SC QW over 4 weeks) was “generally well tolerated; also recorded: generally well-tolerated; also recorded: favorable tolerability profile”.
